Reference: ChEMBL document CHEMBL4303082, “A Large-scale Drug Repositioning Survey for SARS-CoV-2 Antivirals” (2020)
Square brackets hold non-standard residues; d marks the D form. Peptide text beside a SMILES is read from it. * marks the point of attachment. ξ: configuration not given here. ξF = NC(Cc1ccccc1)C(=O)O; Cbz = O=C(OCc1ccccc1)*; CHN2 = [N-]=[N+]=C*

system: SARS-CoV-2; experiment: Determination of antiviral efficacy in high-content imaging assay in Vero E6 cells infected with SARS-CoV-2 (USA-WA1/2020 isolate) at MOI 0.75 after 24 hrs; assay type: functional, organism-based, Chlorocebus sabaeus; conditions: Severe acute respiratory syndrome coronavirus 2, Vero C1008, 24 h

SMILES	EC50 [nM]
COc1cc2c(cc1N1C[C@@H](C)N[C@@H](C)C1)N(C(=O)c1ccc(-c3ccc(-c4noc(C)n4)cc3C)cc1)CC2	1200
C[C@@H]1CN(c2ncc(C(O)CO)cc2Cl)CCN1c1nc2c(-c3cc(F)c(F)c(F)c3)cc(C(F)(F)F)cc2[nH]1 (stereo partly specified)	950
C1=C(c2ccc(CN3CCCCC3)cc2)N2CCN=C2c2ccccc21	750
CCC(CC)COC(=O)[C@H](C)N[P@](=O)(OC[C@H]1O[C@@](C#N)(c2ccc3c(N)ncnn23)[C@H](O)[C@@H]1O)Oc1ccccc1	620
CCNC/C=C\CNCCCCNCCCCNC/C=C\CNCC	250
CC[C@H](NC(=O)[C@H](CS(=O)(=O)CC1CC1)N[C@@H](c1ccc(F)cc1)C(F)(F)F)C(=O)C(=O)NC1CC1	300
CN(C)CCn1c(C(=O)N2CCN(c3ccccc3Cl)CC2)c(C(c2ccc(O)cc2)c2ccc(O)cc2)c2ccccc21	1200
COc1cccc2c(N3CCc4ccccc4C3C)nc(Nc3ccc(F)cc3C)nc12 (stereo unspecified)	950
CC(C)(O)c1ccc2c(c1)/C(=C/CCN1CC[C@](O)(c3ccc(Cl)cc3)C(C)(C)C1)c1cccnc1CO2	140
C[C@@H]1CS/C(=N\NC(=O)C(=O)[C@@H](NC(=O)C2CCCCCC2)C2CCOCC2)N1C	500
CC(C)CC(NC(=O)OCc1ccccc1)C(=O)NC(C(=O)NCC(=O)C=[N+]=[N-])C(C)C (stereo not drawn) (Cbz-Leu-Val-Gly-CHN2; configuration not given here)	190
CC(C)[C@H](NC(=O)OCc1ccccc1)C(=O)NC(C=O)Cc1ccccc1 (stereo partly drawn) (Cbz-Val-[ξF]-aldehyde)	220
Cc1cccc(/C=N/Nc2cc(N3CCOCC3)nc(OCCc3ccccn3)n2)c1 [APILIMOD]	23
Fc1ccc(-c2ccc(CN3CCN(c4cccc5ccoc45)CC3)[nH]2)cc1 [ELOPIPRAZOLE]	1100
COc1ccc2cc1Oc1ccc(cc1)C[C@H]1c3cc(c(OC)cc3CCN1C)Oc1c(OC)c(OC)cc3c1[C@H](C2)N(C)CC3 [FANCHININ]	1100
CC(C)(C)NCc1ccc(Nc2ccnc3cc(Cl)ccc23)cc1O [GSK-369796]	1200
